Experimental data as given in PubChem BioAssay AID743422 (The Scripps Research Institute Molecular Screening Center, 2014).
pIC50: −log10 of the molar value. Active and inactive are the calls of the source. How the calls were made is not given here.

molecular target: Sphingosine 1-phosphate receptor 1 (Homo sapiens) (UniProt P21453); test: S1P1 receptor antagonism, potency – cell-based, luminescence, late-stage, counter-screen for S1PR3 antagonist project, dose response (AID 743422); conditions: Tango EDG-1-bla U2OS cells, beta-lactamase FRET reporter, 5 h S1P
Sequence (P21453 whole entry, looked up): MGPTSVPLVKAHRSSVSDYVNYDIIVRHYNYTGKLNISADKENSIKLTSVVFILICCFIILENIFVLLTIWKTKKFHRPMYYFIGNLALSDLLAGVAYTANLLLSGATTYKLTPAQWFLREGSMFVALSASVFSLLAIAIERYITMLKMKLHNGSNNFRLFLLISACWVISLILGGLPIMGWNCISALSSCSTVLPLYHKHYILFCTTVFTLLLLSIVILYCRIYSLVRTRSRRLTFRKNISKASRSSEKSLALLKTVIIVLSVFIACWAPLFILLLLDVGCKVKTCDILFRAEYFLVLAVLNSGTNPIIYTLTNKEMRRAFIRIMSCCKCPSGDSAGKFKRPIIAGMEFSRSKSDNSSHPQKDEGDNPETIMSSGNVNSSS

SMILES | pIC50 | IC50
O=C(NC(c1ccccc1)c1nc(-c2ccccc2)no1)c1cccc(Cl)c1 (centres undefined) | 5.80 | –
O=C(NC(Cc1ccccc1)c1nc(-c2ccccc2)no1)c1cccc(Cl)c1 (centres undefined) | – | > 28.2 µM (inactive)
O=C(NC(c1ccc(Cl)cc1)c1nc(-c2ccccc2)no1)c1ccc(Cl)c(Cl)c1 (centres undefined) | – | inactive
O=C(NC(c1ccc(Cl)cc1)c1nc(-c2cccc(Cl)c2)no1)c1cccc(Cl)c1 (centres undefined) | – | > 28.2 µM (inactive)
COc1ccc(C(=O)NC(c2ccccc2)c2nc(-c3ccccc3)no2)cc1 (centres undefined) | – | > 28.2 µM (inactive)
O=C(NC(c1ccc(Cl)cc1)c1nc(-c2ccccn2)no1)c1cccc(Cl)c1 (centres undefined) | – | > 28.2 µM (inactive)
O=C(NC(c1ccccc1)c1nc(-c2ccccc2)no1)c1ccc(Cl)cc1 (centres undefined) | 5.14 | –
O=C(NC(c1ccc(Br)cc1)c1nc(-c2ccccc2)no1)c1ccc(Cl)c(Cl)c1 (centres undefined) | – | > 28.2 µM (inactive)
CCc1ccc(C(NC(=O)c2cccc(Cl)c2)c2nc(-c3ccccc3)no2)cc1 (centres undefined) | – | > 28.2 µM (inactive)
O=C(c1cccc(Cl)c1)N(CCO)C(c1ccc(Cl)c(Cl)c1)c1nc(-c2ccccc2)no1 (centres undefined) | 5.57 | –
O=C(NC(c1cccc(Cl)c1)c1nc(-c2ccccc2)no1)c1cc(Cl)cc(Cl)c1 (centres undefined) | 6.95 | –
Cc1ccc(C(=O)NC(c2ccccc2)c2nc(-c3ccccc3)no2)cc1 (centres undefined) | – | > 28.2 µM (inactive)
O=C(NC(c1ccc(Cl)cc1)c1nc(-c2ccccc2)no1)c1cccc(Cl)c1 (centres undefined) | – | > 28.2 µM (inactive)
O=C(NC(c1ccc(Cl)c(Cl)c1)c1nc(-c2ccccc2)no1)c1ccc(Cl)cc1 (centres undefined) | 5.92 | –
